Experimental data taken from patent US7186824B2, “Reduction inhibitory agent for active-oxygen eliminating activity” (Kabushiki Kaisha Hayashibara Seibutsu Kagaku Kenkyujo, priority 1997, dated 2007).

Legend:
Type in all cases: biochemical
[1] = Active-oxygen eliminating activity of superoxide dismutase and antioxidants in water or trehalose solution before/after storage (NBT test); conditions: for Activity (unit/mg antioxidant) Before storage: in trehalose solution, trehalose concentration 45%; for Activity (unit/mg antioxidant) After storage: light-shielded
Description: (§1) Fresh raw carrots were disrupted by a mixer, and 10% of either of saccharides, d.s.b., was added to the mixture and dissolved therein. The solution was dried under reduced pressures at 40° C. for two days, dried in vacuo at the same temperature for 24 hours, and pulverized by a mixer into a powdery carrot composition. The saccharides used were commercialized reagents of glucose, mannitol, sorbitol, maltose, sucrose, trehalose, and pullulan. An about 100 g of the composition was placed and sealed in a 500-ml polystyrene container, and stored at 40° C. for seven days. The active-oxygen eliminating activity of the composition before and after the storage were compared. The assay for the active-oxygen eliminating activity followed the nitroblue tetrazolium test by Toshio IMANARI et at in Igakuno Ayumi, Vol. 101, pp. 496–497 (1977); the level of superoxide, formed in a xanthine-xanthine oxidase system, was assayed by quantifying calorimetrically the content of formazan formed by reducing NBT. As a control, refined water was used as a test solution. One unit activity of active-oxygen eliminating activity is defined as that inhibits 50% formazan formation as compared with the control. […] The reduction inhibitory activity of trehalose was strongly higher than that of glucose as the constituent saccharide for trehalose, and that of maltose as a disaccharide consisting of two glucose units similar to trehalose. Thus trehalose is suitably used as an effective ingredient for a reduction inhibitory agent for active-oxygen eliminating activity.
In one milliliter of a 45 w/v % trehalose solution was dissolved five micrograms of superoxide dismutase from a horseradish-commercialized by Sigma Chemical Co., St. Louise, USA, 10 mg α-glucosyl hesperidin commercialized by Hayashibara Biochemical Laboratories, Inc., Okayama, Japan, 10 mg α-glucosyl rutin commercialized by Hayashibara Biochemical Laboratories, Inc., Okayama, Japan, 250 μg gallic acid commercialized by Wako Pure Chemical Industries, Ltd., Tokyo, Japan, or 50 μg catechin to obtain a liquid composition. Each of the compositions was placed in a glass test tube, sealed with a rubber cap, and stored under light-shielded conditions. As a control, water was used in place of the trehalose solution. […] Mere mixing of a powdery crystalline trehalose hydrate and either of the powdery antioxidants into a powdery mixture, almost no change of the active-oxygen eliminating activity was observed when subjected to storage test similarly as above.

[2] = Influence of trehalose concentration on active-oxygen eliminating activity of powdery carrot composition before/after storage (NBT test); conditions: for Activity (unit/g) After storage / Percentage of residual activity (%): 40° C. for seven days; for Activity (unit/g) Before storage: powdery carrot composition
Description: as §1
Similarly as in Experiment 1, 0–20% of trehalose, d.s.b., was mixed with and dissolved in a disrupted carrot. The resulting each mixture was dried in vacuo at 40° C. for 24 hours, and pulverized into a powdery carrot composition. Similarly as in Experiment 1, each powdery composition was placed and sealed in a polystyrene container, and stored at 40° C. for seven days for evaluating the reduction inhibitory activity for active-oxygen eliminating activity. […] Based on the data from Table 2, at least of about one percent, preferably, at least of about five percent, and more preferably, at least of about 20% of trehalose, d.s.b., exerted a desired effective reducing inhibitory activity for active-oxygen eliminating activity.

[3] = Influence of saccharides on active-oxygen eliminating activity of powdery carrot composition before/after storage (NBT test); conditions: compared among the saccharides tested, 40° C. seven days
Description: Fresh raw carrots were disrupted by a mixer, and 10% of either of saccharides, d.s.b., was added to the mixture and dissolved therein. The solution was dried under reduced pressures at 40° C. for two days, dried in vacuo at the same temperature for 24 hours, and pulverized by a mixer into a powdery carrot composition. The saccharides used were commercialized reagents of glucose, mannitol, sorbitol, maltose, sucrose, trehalose, and pullulan. An about 100 g of the composition was placed and sealed in a 500-ml polystyrene container, and stored at 40° C. for seven days. The active-oxygen eliminating activity of the composition before and after the storage were compared. The assay for the active-oxygen eliminating activity followed the nitroblue tetrazolium test by Toshio IMANARI et at in Igakuno Ayumi, Vol. 101, pp. 496–497 (1977); the level of superoxide, formed in a xanthine-xanthine oxidase system, was assayed by quantifying calorimetrically the content of formazan formed by reducing NBT. As a control, refined water was used as a test solution. One unit activity of active-oxygen eliminating activity is defined as that inhibits 50% formazan formation as compared with the control. […]

[4] = trehalose 0%, stored 80° C. 5 days
[5] = trehalose 45%, stored 80° C. 5 days
[6] = 0.1% trehalose added to carrot (content 1.0% d.s.b.)
[7] = 0.5% trehalose added to carrot (content 4.9% d.s.b.)
[8] = 1.0% trehalose added to carrot (content 9.4% d.s.b.)
[9] = 2.5% trehalose added to carrot (content 20.7% d.s.b.)
[10] = 5.0% trehalose added to carrot (content 34.2% d.s.b.)
[11] = 10.0% trehalose added to carrot (content 51.1% d.s.b.)
[12] = 20.0% trehalose added to carrot (content 67.6% d.s.b.)
[13] = trehalose 45%, stored 25° C. 20 hours

## O=C(O)c1cc(O)c(O)c(O)c1 [Gallic acid, gallic acid]
[1]
  Activity (unit/mg antioxidant) Before storage: 570 unit/mg antioxidant
[1]; [4]
  Activity (unit/mg antioxidant) After storage: 390 unit/mg antioxidant
[1]; [5]
  Residual activity (%): 82%
  Activity (unit/mg antioxidant) After storage: 470 unit/mg antioxidant

## OC[C@H]1O[C@H](O[C@H]2O[C@H](CO)[C@@H](O)[C@H](O)[C@H]2O)[C@H](O)[C@@H](O)[C@@H]1O [Trehalose, α,α-trehalose]
[2]; [6]
  Activity (unit/g) After storage: 400 unit/g
  Percentage of residual activity (%): 43%
  Activity (unit/g) Before storage: 930 unit/g
[2]; [7]
  Activity (unit/g) After storage: 460 unit/g
  Percentage of residual activity (%): 61%
  Activity (unit/g) Before storage: 750 unit/g
[2]; [8]
  Activity (unit/g) After storage: 480 unit/g
  Percentage of residual activity (%): 56%
  Activity (unit/g) Before storage: 860 unit/g
[2]; [9]
  Activity (unit/g) After storage: 460 unit/g
  Activity (unit/g) Before storage: 700 unit/g
[2]; [10]
  Activity (unit/g) After storage: 370 unit/g
  Percentage of residual activity (%): 62%
  Activity (unit/g) Before storage: 600 unit/g
[2]; [11]
  Activity (unit/g) After storage: 330 unit/g
  Percentage of residual activity (%): 83%
  Activity (unit/g) Before storage: 400 unit/g
[2]; [12]
  Activity (unit/g) After storage: 240 unit/g
  Percentage of residual activity (%): 63%
  Activity (unit/g) Before storage: 380 unit/g
[3]
  reduction inhibitory activity for active-oxygen eliminating activity (in words): strong effect

## Superoxide dismutase
[1]
  Activity (unit/mg antioxidant) Before storage: 11,000 unit/mg antioxidant
[1]; trehalose 0%, stored 60° C. 17 hours
  Activity (unit/mg antioxidant) After storage: 4,600 unit/mg antioxidant
[1]; trehalose 45%, stored 60° C. 17 hours
  Activity (unit/mg antioxidant) After storage: 9,400 unit/mg antioxidant

## catechin
[1]
  Activity (unit/mg antioxidant) Before storage: 380 unit/mg antioxidant
[1]; trehalose 0%, stored 25° C. 20 hours
  Activity (unit/mg antioxidant) After storage: 2.2 unit/mg antioxidant
[1]; [13]
  Residual activity (%): 82%
  Activity (unit/mg antioxidant) After storage: 310 unit/mg antioxidant

## α-glucosyl hesperidin
[1]
  Activity (unit/mg antioxidant) Before storage: 3.6 unit/mg antioxidant
[1]; [4]
  Activity (unit/mg antioxidant) After storage: 1.0 unit/mg antioxidant
[1]; [5]
  Residual activity (%): 67%
  Activity (unit/mg antioxidant) After storage: 2.4 unit/mg antioxidant

## α-glucosyl rutin
[1]; [4]
  Activity (unit/mg antioxidant) After storage: 18 unit/mg antioxidant
[1]; [5]
  Activity (unit/mg antioxidant) After storage: 22 unit/mg antioxidant
